Measured values from PMC6523444, “Antioxidant Activities of Alkyl Substituted Pyrazine Derivatives of Chalcones—In Vitro and In Silico Study” (Antioxidants, 2019).

Experiments:
[1] = DPPH• radical scavenging assay; settings: 100 µM DPPH•, 30 min, room temperature, dark; read-out: DPPH● radical scavenging (RS) activity IC50
Protocol: Vitamin C (Acros Organics, Geel, Belgium) was used as a standard antioxidant control and was prepared in the same way as tested compounds. Dilutions of tested compounds and vitamin C were prepared in a final concentration range of 1 mM–0.01 μM. One milliliter of compound solution was added to 1 mL of freshly prepared DPPH• solution (3.9 mg/50 mL ethanol; final concentration of 100 µM) and the reaction mixture was incubated in the dark at room temperature for 30 min. Absorbance was recorded at 540 nm using a 96-well Wallac Victor2 plate reader. Neutralization of DPPH• radical by a compound was calculated according to the following formula:RS activity (%) = [(A0 − A1)/A0] × 100(1) where A0/A1 is the control/sample absorbance. The results were averages of three measurements. The IC50 value was calculated using GraphPad Prism software (GraphPad Software, San Diego, CA, USA).

[2] = MTS cytotoxicity assay, overnight, THP-1; type: cell-based, human; settings: human, THP-1 cells, overnight, concentration range 100–0.2 µM
Protocol: (§1) Adherent liver hepatocellular carcinoma cell line HepG2 (ATCC, HB-8065) and human acute monocytic leukemia cell line in suspension THP-1 (ATCC, TIB-202) were purchased from American Type Culture Collection (ATCC, Manassas, VA, USA). Cell lines were maintained in complete DMEM/F12 medium (Sigma, D8437, St. Louis, MO, USA) and complete RPMI1640 (Sigma, R7388, St. Louis, MO, USA) respectively, supplemented with 10% Fetal Calf Serum (FCS, Sigma, F7524, St. Louis, MO, USA) at 37 °C in 5% CO2 atmosphere.
(§2) A cytotoxicity assay was performed using MTS CellTiter 96 AQueous One Solution Cell Proliferation Assay (Promega, G3580, Madison, WI, USA). Double dilutions of compounds were prepared in the concentration range of 100–0.2 µM within microplate wells. In each well, 5 × 10^4 cells were added and the plates were incubated overnight at 37 °C in 5% CO2 atmosphere. Following this, 10 µL of MTS (3-(4,5-dimethylthiazol-2-yl)-5-(3-carboxymethoxyphenyl)-2-(4-sulfophenyl)-2H -tetrazolium) reagent was dispensed per well and the plates were incubated for 1–6 h at 37 °C in 5% CO2 atmosphere. Control wells consisted of media only (blank) or cells with 1% DMSO added (control). The absorbance was recorded at 490 nm using a Wallac Victor2 microplate reader (PerkinElmer, Waltham, MA, USA). Results were analyzed in GraphPad Prism software (GraphPad Software, San Diego, CA, USA).

[3] = MTS cytotoxicity assay, overnight, HepG2; type: cell-based; settings: human, HepG2 cells, concentration range 100–0.2 µM
Protocol: as §1, §2

THP-1 = test: MTS cytotoxicity assay, overnight, THP-1; type: cell-based, human; settings: up to 100 μM overnight
Protocol: as §1, §2

[4] = tested on: THP-1 cells treated by H2O2; test: Growth of THP-1 cells pre- or post-treated with H2O2, trypan blue exclusion assay; type: cell-based, human; settings: for Effect against cytotoxic / pro-oxidative activity of H2O2 on THP-1 cells: compound at DPPH• IC50 concentration, before or after 5 mM H2O2; for Recovery of THP-1 cells after initial damage: from the 48 h point, H2O2 plus compound
Protocol: The substances without cytotoxic effects and with RS activity were tested for antioxidant potential at the cellular level using THP-1 cells treated by H2O2 [28]. The cells were exposed to the IC50 concentrations of the compounds determined by the DPPH• assay. Compounds were applied 30 min either before or after exposure to 5 mM of H2O2, which is equivalent to the cytotoxic ED50 dose of H2O2 for the THP-1 cells. The cell growth was analyzed every 24 h, via the trypan blue exclusion assay using a Bürker-Türk hemocytometer (Brand GMBH + CO KG, Wertheim, Germany), during a 4-day period. All assays were carried out in triplicates. The comparison of mean values was done by the two-tailed Student’s t-test.

aldose reductase ALR2 = tested on: aldose reductase ALR2; design: method as in doi:10.1007/s00706-018-2146-6; settings: cited from earlier work
[5] = design: method as in doi:10.1627/jpi.51.298; settings: oxygen atmosphere, 50 °C, compared with para-coumaric acid fragment; cited from earlier work
[6] = tested on: cell lines A549, PC3, MCF-7, HT-29 and WRL68; design: method as in PMID 22634834; settings: cited from earlier work
THP-1 cells = settings: cited from earlier work

IC50 [1] | Compound | IC50 [2] | IC50 [3] | also measured
> 1000 µM | O=C(/C=C/c1cccc(O)c1)c1ccccc1 [Compound 2] | 51 µM | > 100 µM | –
– | CC(C)(C)c1cnc(C(=O)/C=C/c2ccc(O)cc2)cn1 [Compound 3f] | > 100 µM | > 100 µM | –
46 µM | COc1cc(/C=C/C(=O)c2cnc(CC(C)C)cn2)ccc1O [Compound 4e] | > 100 µM | > 100 µM | Cytotoxicity on THP-1 cells, in words (THP-1): non-toxic; Effect of the pure substance on the growth of THP-1 cells ([4]; compound alone at its DPPH• IC50 concentration, 96 h, Figure 2a): no considerable effects; Effect against cytotoxic / pro-oxidative activity of H2O2 on THP-1 cells [4]: greater attenuation of H2O2 effects; Recovery of THP-1 cells after initial damage [4]: considerably greater
– | CC(C)Cc1cnc(C(=O)/C=C/c2cccc(O)c2)cn1 [Compound 2e] | > 100 µM | > 100 µM | –
> 1000 µM | O=C(/C=C/c1ccc(O)cc1)c1cnccn1 [Compound 3a] | 97 µM | > 100 µM | ALR2 inhibition activity (aldose reductase ALR2): moderate ALR2 inhibition activity; RS activity in styrene auto-oxidation [5]: significant RS activity
39 µM | COc1cc(/C=C/C(=O)c2cnc(C(C)C)cn2)ccc1O [Compound 4c] | > 100 µM | > 100 µM | Cytotoxicity on THP-1 cells, in words (THP-1): non-toxic; Attenuation of H2O2 effect on THP-1 cells, compound added before H2O2 ([4]; compound at DPPH• IC50 concentration 30 min before 5 mM H2O2, 4 days): most efficient reduction of cytotoxic effect of H2O2; Effect against cytotoxic / pro-oxidative activity of H2O2 on THP-1 cells [4]: greater attenuation of H2O2 effects; Recovery of THP-1 cells after initial damage [4]: considerably greater
– | CCCc1cnc(C(=O)/C=C/c2ccccc2O)cn1 [Compound 1b] | > 100 µM | > 100 µM | –
> 1000 µM | CCCCc1cnc(C(=O)/C=C/c2cccc(O)c2)cn1 [Compound 2d] | 67 µM | > 100 µM | –
– | COc1cc(/C=C/C(=O)c2cnc(C(C)(C)C)cn2)ccc1O [Compound 4f] | 36 µM | > 100 µM | –
186 µM | COc1cc(/C=C/C(=O)c2cnccn2)ccc1O [Compound 4a] | > 100 µM | > 100 µM | Cytotoxicity on THP-1 cells, in words (THP-1): non-toxic; Effect against cytotoxic / pro-oxidative activity of H2O2 on THP-1 cells [4]: lowest effect; RS activity in styrene auto-oxidation [5]: significant RS activity
> 1000 µM | O=C(/C=C/c1ccc(O)cc1)c1ccccc1 [Compound 3] | > 100 µM | > 100 µM | ALR2 inhibition activity (aldose reductase ALR2): comparable ALR2 inhibition; Cytotoxicity against A549, PC3, MCF-7, HT-29 and WRL68 [6]: significant cytotoxicity
> 1000 µM | O=C(/C=C/c1cccc(O)c1)c1cnccn1 [Compound 2a] | 50 µM | 100 µM | ALR2 inhibition activity (aldose reductase ALR2): moderate ALR2 inhibition activity
– | CC(C)(C)c1cnc(C(=O)/C=C/c2cccc(O)c2)cn1 [Compound 2f] | > 100 µM | > 100 µM | –
> 1000 µM | CCCCc1cnc(C(=O)/C=C/c2ccccc2O)cn1 [Compound 1d] | 27 µM | 86 µM | –
> 1000 µM | CC(C)c1cnc(C(=O)/C=C/c2ccc(O)cc2)cn1 [Compound 3c] | 78 µM | > 100 µM | –
> 1000 µM | CC(C)c1cnc(C(=O)/C=C/c2cccc(O)c2)cn1 [Compound 2c] | 83 µM | 97 µM | –
> 1000 µM | O=C(/C=C/c1ccccc1O)c1cnccn1 [Compound 1a] | 40 µM | > 100 µM | RS activity in styrene auto-oxidation [5]: significant RS activity
> 1000 µM | O=C(/C=C/c1ccccc1O)c1ccccc1 [Compound 1] | 70 µM | > 100 µM | –
> 1000 µM | CC(C)c1cnc(C(=O)/C=C/c2ccccc2O)cn1 [Compound 1c] | 96 µM | > 100 µM | –
> 1000 µM | CCCCc1cnc(C(=O)/C=C/c2ccc(O)cc2)cn1 [Compound 3d] | 83 µM | > 100 µM | –
– | OO [Compound H2O2, hydrogen peroxide] | – | – | Cytotoxic ED50 dose for THP-1 cells (THP-1 cells): 5000 µM
– | CC(C)(C)c1cnc(C(=O)/C=C/c2ccccc2O)cn1 [Compound 1f] | > 100 µM | > 100 µM | –
– | CCCc1cnc(C(=O)/C=C/c2cccc(O)c2)cn1 [Compound 2b] | 48 µM | > 100 µM | –
– | CCCc1cnc(C(=O)/C=C/c2ccc(O)cc2)cn1 [Compound 3b] | 94 µM | > 100 µM | –
– | COc1cc(/C=C/C(=O)c2ccccc2)ccc1O [Compound 4] | > 100 µM | > 100 µM | –
– | CC(C)Cc1cnc(C(=O)/C=C/c2ccccc2O)cn1 [Compound 1e] | 94 µM | > 100 µM | –
– | CC(C)Cc1cnc(C(=O)/C=C/c2ccc(O)cc2)cn1 [Compound 3e] | > 100 µM | > 100 µM | –
